Patent US20080118480A1, “Methods and Compositions for Directing Migration of Neural Progenitor Cells” (IMCLONE SYSTEMS INCORPORATED, priority 2003, published 2008)
Entries after “also recorded” stand apart in the source; their conditions may differ.

How the values were obtained:
Type in all cases: cell-based, rat
VEGFR-2 [1] = test: RNase protection assay of VEGF receptor mRNA expression; settings: 12 hours starvation of FGF-2 versus cells in FGF-2
Protocol: (§1) Neural progenitor cells at 6 days of culture in FGF-2 or after starvation of FGF-2 for 12 hours were used for RNA preparation. Total cellular RNA was purified using Trizol reagent (Invitrogen). RNase protection assays were performed using cRNA probes for rat VEGFR1 and VEGFR2 as described in Pepper et al. (2000).

VEGFR-1 = test: as above; settings: 12 hours starvation of FGF-2 versus cells in FGF-2
Protocol: as §1

neural progenitor cells = test: Dunn chamber chemotaxis / chemokinesis of neural progenitor cells
Protocol: The SVZ was dissected from coronal slices of newborn rat brains, dissociated mechanically and trypsinized according to methods known in the art (See Lim et al. “Noggin antagonizes BMP signaling to create a niche for adult neurogenesis, Neuron, 28: 713-726 (2000), which is incorporated by reference herein). SVZ progenitors were purified using percoll gradient centrifugation according to methods known in the art (See Lim et al., 2000) and seeded onto matrigel (0.24 mg/cm^2)- or laminin-coated coverslips. Isolated cells were allowed to grow in Neurobasal medium supplemented with 20 ng/ml FGF-2, 1×B27, 2 mM […], 1 mM sodium pyruvate, 2 mM N-acetyl-cysteine, and 1% penicillin-streptomycin. Cultures were fed every three days with fresh medium containing 20 ng/ml FGF-2.
[…] Cell Sci., 99:769-775 (1991); Allen et al., “A role for Cdc42 in macrophage chemotaxis,” J. Cell. Biol, 141:1147-1157 (1998), both of which are incorporated by reference herein). Recombinant human VEGF-CΔNΔC (Dr. M. Skobe, Cancer Center, Mount Sinai Medical Center, New York) was used in some experiments. The Dunn chamber is made from a Helber bacteria counting chamber by grinding a circular well in the central platform to leave a 1 mm wide annular bridge between the inner and the outer well. Chemoattractants added to the outer well of the device will diffuse across the bridge to the inner blind well of the chamber and form a gradient. This apparatus allows one to determine the direction of migration in relation to the direction of the gradient.
Coverslips with cells were inverted onto the chamber and cell migration was recorded through the annular bridge between the concentric inner and outer wells, and a period of 2 hours was chosen to assess cell migration. In these studies, a systematic sampling was applied and all cells within the migration region of the chamber were recorded and analyzed. Data were recorded every 10 minutes using a ZEISS 10× objective via a HAMAMATSU CCD video camera using Openlab software.
[…] For chemokinesis experiments, VEGF (20 ng/ml) or FGF-2 (20 ng/ml) was added to both outer and inner wells of the Dunn chamber.
Directionality of cell movement was analyzed using scatter diagrams of cell displacement. The diagrams were oriented so that the position of the outer well of the chamber was vertically upwards (y direction). Each point represents the final positions of the cells at the end of the recording period where the starting point of migration is fixed at the intersection of the two axes.
To determine the efficiency of forward migration during the 2-hour recording period, each cell's forward migration index (FMI) was calculated as the ratio of forward progress (net distance the cell progressed in the direction of VEGF source) to the total path length (total distance the cell traveled through the field) (Foxman et al., 1999). FMI values were negative when cells moved away from the source of VEGF. The cell speed was calculated for each lapse interval recorded during the 2-hour period.

[2] = system: subventricular zone (SVZ) explants; test: Migration of neural progenitor cells from SVZ explants in collagen matrix
Excerpt: The frontal lobes of the brains of one-day-old Sprague-Dawley rat pups (Size, Zurich, Switzerland) were isolated and cut into 300 μm thick coronal sections with a McIllwain tissue chopper. From these slices the anterior part of the subventricular zone (SVZ) was microdissected. The SVZ explants were embedded in a collagen matrix and cultured for 7 days in chemically-defined serum-free medium (50% Dulbecco's modified Eagle's medium [Gibco, Berlin, […]], 50% F12, HEPES, Tris-HCl, and complemented with transferrin human 20 μg/ml, putrescine 100 μM, sodium selenite 30 nM, triiodothyronin 1 nM, docosahexaenoic acid 0.5 μg/ml, arachidonic acid 1 μg/ml, insulin 60 U/l) under 5% CO2. The medium was changed every 3rd day. For co-culture experiments, SVZ explants were cultured in the presence of murine C2C12 myoblasts that had been engineered to secret […] et al., 2001). C2C12 cells were suspended in a drop of collagen matrix which was placed at a distance of approximately 1,000 μm from the SVZ explant. As a control, mock-transfected cells of the same origin were placed into the collagen matrix in a similar manner and at the same distance, but on the opposite side of the explant. Cell migration was assessed at the end of the 7th day in culture. Three categories were established: 1, no migration: no or only a few cells emigrated from the explants; 2, symmetrical migration: numerous cells had left the explants, the distance of the migrating front of the cells exceeded 50 μm, no directionality of migration; 3, asymmetrical or directional migration: when the distance of the migrating front were at least twice that on the other side and exceeded 50 μm.

VEGFR-2 [3] = test: Immunoprecipitation and Western blot of VEGFR-2 protein
Protocol: Neural progenitor cells from the normal cultures in FGF-2 or from cultures starved of FGF-2 for 12 hours were lysed and VEGFR-2 protein was immunoprecipitated from cell lysates with a polyclonal antibody (sc-504; Santa Cruz Biochemicals, Santa Cruz, Calif.) recognizing amino aids 1158 to 1345 in the mouse VEGFR2 carboxy terminus. Western blot was performed with a polyclonal anti-VEGFR-2 antibody (sc-315; Santa Cruz Biochemicals) recognizing the mouse carboxy terminal amino acids 1348 to 1367.

level of VEGFR-2 transcripts after FGF-2 starvation (VEGFR-2 [1]) | level of VEGFR-1 transcripts after FGF-2 starvation (VEGFR-1) | Substance | chemotactic response to VEGF after re-addition of FGF-2 (neural progenitor cells; 12-hour FGF-2 starvation, then 8-hour re-incubation with FGF-2, VEGF gradient) | chemotactic effect of FGF-2 (neural progenitor cells; FGF-2 gradient, whether or not VEGF was present) | explants with migrating cells symmetrically distributed ([2]; FGF-2 (20 ng/ml), co-cultured with mock-transfected cells) | explants with symmetric migration ([2]; application of VEGF and FGF-2 together or FGF-2 alone) | VEGFR-2 protein expression in the presence of FGF-2 (VEGFR-2 [3]; cultured in FGF-2) | VEGFR-2 protein expression in the absence of FGF-2 (VEGFR-2 [3]; starved of FGF-2 for 12 hours) | directionality of migration under chemokinesis conditions (neural progenitor cells; VEGF (20 ng/ml) in both inner and outer wells, FGF-2 present) | forward migration index (FMI) versus FGF-2 gradient or chemokinesis (neural progenitor cells; VEGF gradient in the presence of FGF-2, 2-hour recording) | migration speed versus FGF-2 gradient or chemokinesis (neural progenitor cells; VEGF gradient in the presence of FGF-2, mean over 2 hours) | chemotaxis in a VEGF gradient after FGF-2 starvation (neural progenitor cells; cells at 5 days starved of FGF-2 for 12 hours, then VEGF gradient) | chemotaxis of neural progenitor cells in a VEGF gradient (neural progenitor cells; gradient established with 200 ng/ml VEGF in outer well, 20 ng/ml FGF-2 in both wells, day 6 cells, 2-hour recording) | attractive effect on different coating matrices (neural progenitor cells; laminin-, poly-L-lysine- or matrigel-coated coverslips) | explants with no significant cell migration ([2]; application of VEGF in the absence of FGF-2)
fivefold decrease | fivefold decrease | FGF-2: fibroblast growth factor-2 (FGF-2), used at 20 ng/ml in culture medium | resume their chemotactic response; also recorded: rescued | no chemotactic effect | 10/10 | 12/12 | substantial expression | little to no expression |  |  |  |  |  |  | 
 |  | VEGF |  |  |  |  |  |  | no clear preference for displacement | significantly greater | significantly greater | lose their chemotactic response; also recorded: failed to undergo chemotaxis | clear directionality of migration; also recorded: strong positive chemotaxis; also recorded: migrated efficiently toward the source of VEGF | similar | 4/4
